The text below walks through data of patent publication US20250161477A1, “NOVEL METHODS OF THERAPY” (BIVICTRIX LIMITED, priority 2022, published 2025).

In test [1] the test system is Human CD34+ progenitor cells. Nature of the test: Colony forming unit assay: differentiation of healthy CD34+ progenitor cells to myeloid CD33+ cells.
Description: Methocult was thawed at 4° C. overnight. Methocult was shaken and allowed to stand at room temperature until all the bubbles had dispersed and aliquoted into 3 mL aliquots. A 6-point dose titration was prepared for each antibody in PBS to achieve the following final concentrations: 10, 3, 1, 0.1, 0.01 and 0 nM. Enough of each dilution was prepared to test activity across duplicate wells. Each titration was pipetted into a 1.5 mL tube. CD34+ cells were thawed at 37° C. and suspended in 2% FBS IMDM. 300 μL of suspension containing 3000 CD34+ cells were pipetted into each 1.5 mL tube containing antibody titration and the solution gently was mixed by pipetting. […] The total volume of antibody dilution added to the cells was 30 μL in all conditions. The cell suspension/conjugate mix was pipetted into a 3 mL aliquot of Methocult, vortexed for 5 seconds and allowed to stand at room temperature until the bubbles had disappeared. Using an 18-gauge blunt needle and 6 mL syringe, 1 mL of cell/conjugate/Methocult mix was transferred to a well of a Smart dish and each condition was tested across duplicate wells. Each plate was rocked to ensure the Methocult covered the entire well surface evenly and then placed in a 37° C., 5% CO2 incubator. The colonies were counted on day 9 and day 14 and the data plotted in Excel.
The next test deals with human CD33 (human) (UniProt P20138). Nature of the test: cell-based or functional assay.
The next test concerns the target human CD56 (human) (UniProt P13591). In words: cell-based or functional assay.

Sequence of human CD33 (human) (P20138 18-364 R69G limits assumed): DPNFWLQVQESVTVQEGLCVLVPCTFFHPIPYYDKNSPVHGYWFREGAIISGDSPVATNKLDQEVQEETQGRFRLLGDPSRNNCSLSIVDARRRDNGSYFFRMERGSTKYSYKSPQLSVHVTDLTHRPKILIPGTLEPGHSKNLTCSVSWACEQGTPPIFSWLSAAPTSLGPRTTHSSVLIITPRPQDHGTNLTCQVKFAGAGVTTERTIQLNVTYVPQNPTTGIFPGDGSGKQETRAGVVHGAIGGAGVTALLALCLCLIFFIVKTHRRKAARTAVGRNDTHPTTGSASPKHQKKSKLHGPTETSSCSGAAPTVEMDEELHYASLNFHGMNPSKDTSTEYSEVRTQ
Sequence of human CD56 (human) (P13591 other isoform, or with tags, fused parts or gaps limits assumed): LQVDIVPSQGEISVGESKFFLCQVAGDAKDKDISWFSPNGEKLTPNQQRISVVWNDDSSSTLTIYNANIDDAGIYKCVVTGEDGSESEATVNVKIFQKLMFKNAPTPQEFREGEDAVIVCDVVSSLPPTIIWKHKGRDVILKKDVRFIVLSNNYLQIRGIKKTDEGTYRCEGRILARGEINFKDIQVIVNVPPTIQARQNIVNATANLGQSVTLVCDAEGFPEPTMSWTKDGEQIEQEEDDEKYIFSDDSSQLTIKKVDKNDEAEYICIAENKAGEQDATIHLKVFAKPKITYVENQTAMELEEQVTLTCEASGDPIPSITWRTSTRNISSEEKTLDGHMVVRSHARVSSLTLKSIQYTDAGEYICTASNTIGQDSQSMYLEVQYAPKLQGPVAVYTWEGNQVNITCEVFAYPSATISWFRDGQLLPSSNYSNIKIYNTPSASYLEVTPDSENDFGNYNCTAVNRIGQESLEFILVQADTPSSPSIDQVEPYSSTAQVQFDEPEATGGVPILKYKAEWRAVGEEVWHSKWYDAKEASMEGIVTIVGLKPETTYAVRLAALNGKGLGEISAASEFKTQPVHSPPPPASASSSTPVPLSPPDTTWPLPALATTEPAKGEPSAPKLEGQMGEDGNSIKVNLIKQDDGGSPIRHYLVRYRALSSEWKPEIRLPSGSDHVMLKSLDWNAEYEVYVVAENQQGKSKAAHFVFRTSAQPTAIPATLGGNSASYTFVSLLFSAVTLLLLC

Consider “GEMTUZUMAB: Gemtuzumab (In House), CD33 monospecific antibody, unconjugated”, for which the “Av. % of Colonies Surviving at 10 nM vs Control” value stood at 102.33% in test [1] (9 days of incubation, Experiment 1); 113.3% in test [1] (9 days of incubation, Experiment 2); 100.5% in test [1] (14 days of incubation, Experiment 1); 82.8% in test [1] (14 days of incubation, Experiment 2).

B1: BVX04-a0094-AB4A-1 (CD33xCD56 Bi-Fab ADC) (bispecific antibody, not shown: large carriers)
heavy 1: EVQLVQSGAEVKKPGSSVKVSCKASGYTITDSNIHWVRQAPGQSLEWIGYIYPYNGGTDYNQKFKNRATLTVDNPTNTAYMELSSLRSEDTAFYYCVNGNPWLAYWGQGTLVTVSS
light 1: DIQLTQSPSTLSASVGDRVTIICRASESLDNYGIRFLTWFQQKPGKAPKLLMYAASNQGSGVPSRFSGSGSGTEFTLTISSLQPDDFATYYCQQTKEVPWSFGQGTKLEIK
heavy 2: EVQLVQSGAEVKKPGSSVKVSCKASGGTFTGYYMHWVRQAPGQGLEWMGWINPNSGGTNYAQKFQGRVTMTRDTSISTAYMELSRLRSDDTAVYYCARDLSSGYSGYFDYWGQGTLVTVSS
light 2: DVVMTQSPLSLPVTPGEPASISCRSSQSLLHSNGYNFLDWYLQKPGQSPQLLIYLGSNRASGVPDRFSGSGSGTDFTLKISRVEADDVGVYYCMQSLQTPWTFGHGTKVEIK
As to B1, in the test with human CD33 (human), the Mean IC50, cell kill assay (WST-1, 96 h) on KASUMI-3 cells (CD33+/CD56+) stood at 0.061 nM and the Mean IC50, cell kill assay (WST-1, 96 h) on SET-2 cells (CD33+/CD56-) is above 30 nM. Moreover, in the test with human CD56 (human), the Mean IC50, cell kill assay (WST-1, 96 h) on KASUMI-3 cells (CD33+/CD56+) stood at 0.061 nM and the Mean IC50, cell kill assay (WST-1, 96 h) on KE-37 cells (CD33-/CD56+) was above 30 nM.
